Patent US8846666B2, “Oxathiazine derivatives which are substituted with benzyl or heteromethylene groups, method for producing them, their use as medicine and drug containing said derivatives and the use thereof” (Sanofi, priority 2011, dated 2014)

Molecular target: human 11β-HSD1 microsome fraction (Homo sapiens, UniProt P28845)
Assay: Enzymatic 11Beta-HSD1 test (SPA-based detection)
Type: biochemical
Conditions: [1,2-3H]-cortisone, NADPH, 37° C. for 1 hour
Description: Enzymatic 11Beta-HSD1 Test:
To measure the activity of the compounds, an SPA-based detection method (Solly et al. 2005) was employed. First of all, 20 μl of the human 11β-HSD1 microsome fraction (0.2 μg of protein), prepared in 50 mM HEPES, 0.1% BSA (w/v), were applied to a plate with 384 wells. The test compounds (0.09 μl) were applied to the assay plate in 100% DMSO. The reaction was started by addition of 20 μl of [1,2-^3H]-cortisone (0.1 μCi/[…]) in assay buffer comprising 25 mM HEPES, 100 mM KCl, 5 mM NaCl, 2 mM MgCl2 and 0.25 mM NADPH. The plate was agitated at 37° C. for 1 hour. At the same time, a stop solution comprising 20 mg/ml SPA-PVT beads, 1.6 mg/ml monoclonal cortisol antibody and 0.01 mM SSR110887 (inhibitor from the Biovitrium patent) in 50 mM HEPES, 1 M NaCl and 1 M KCl was stirred at room temperature. To stop the reaction, 25 μl of the stop solution were added to each well. The plate was agitated gently at room temperature for 1 further hour and then centrifuged at 500 gav for 1 min, in order that the SPA beads could settle out. The plate was then read in a Wallac-1450-Microbeta unit with a standard SPA program (counting time 1 min/well). The comparative compound was glycyrrhetinic acid.
Protein and radioactive substrate were dispensed with a Biomek FX unit (Beckman Coulter) for handling liquids. The test compounds were added with a Cybi-Well equipped with a 90 nl pin tool (CyBio).
Lit.: Solly S, Mundt S S, Zokian H J, Juy-Fang Ding G, Hermanowski-Vosatka A, Strulovici B and Zheng W. High-throughput screening of 11β-Hydroxysteroid dehydrogenase type 1 in scintillation proximity format. Assay Drug Dev Technol 2005; 3:377-384.

Sequence of human 11β-HSD1 microsome fraction (P28845 whole entry): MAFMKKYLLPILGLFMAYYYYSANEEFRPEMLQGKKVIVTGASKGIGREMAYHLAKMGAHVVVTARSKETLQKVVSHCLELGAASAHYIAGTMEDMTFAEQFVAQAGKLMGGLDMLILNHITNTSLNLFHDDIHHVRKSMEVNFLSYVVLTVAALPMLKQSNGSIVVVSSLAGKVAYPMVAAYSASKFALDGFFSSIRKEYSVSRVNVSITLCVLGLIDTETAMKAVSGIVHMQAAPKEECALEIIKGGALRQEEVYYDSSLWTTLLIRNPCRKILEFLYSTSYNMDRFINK

Row | SMILES | IC50 [nM]
1 | CC1(C)OC(N[C@@H](CCO)c2ccccc2F)=NS(=O)(=O)C1Cc1ccc(C2CCN(CC3CC3)CC2)cc1 (stereo partly drawn) [Example 30, (S)-3-{5-[4-(1-Cyclopropylmethyl-piperidin-4-yl)-benzyl]-6,6-dimethyl-4,4-dioxo-5,6-dihydro-4H-4lambda6-[1,4,3]oxathiazin-2-ylamino}-3-(2-fluoro-phenyl)-propan-1-ol] | 29
2 | CC1(C)OC(N[C@@H](CCO)c2ccccc2F)=NS(=O)(=O)C1Cc1ccc(CCCN2CCOCC2)cc1 (stereo partly shown) [Example 31] | 17
3 | CN(C)CCCc1ccc(CC2C(C)(C)OC(N[C@@H](CCO)c3ccccc3F)=NS2(=O)=O)cc1 (stereo partly drawn) [Example 32, (S)-3-{5-[4-(3-Dimethylamino-propyl)-benzyl]-6,6-dimethyl-4,4-dioxo-5,6-dihydro-4H-4lambda6-[1,4,3]oxathiazin-2-ylamino}-3-(2-fluorophenyl)-propan-1-ol] | 32
4 | CNCCCc1ccc(CC2C(C)(C)OC(N[C@@H](CCO)c3ccccc3F)=NS2(=O)=O)cc1 (stereo partly drawn) [Example 33, (S)-3-{6,6-Dimethyl-5-[4-(3-methylamino-propyl)-benzyl]-4,4-dioxo-5,6-dihydro-4H-4lambda6-[1,4,3]oxathiazin-2-ylamino}-3-(2-fluorophenyl)-propan-1-ol] | 30
5 | CC1(C)OC(N[C@@H](CCO)c2ccccc2F)=NS(=O)(=O)[C@@H]1Cc1ccc(C2CCNCC2)cc1 [Example 34, (S)-3-[(R)-6,6-Dimethyl-4,4-dioxo-5-(4-piperidin-4-yl-benzyl)-5,6-dihydro-4H-4lambda6-[1,4,3]oxathiazin-2-ylamino]-3-(2-fluorophenyl)-propan-1-ol] | 8
6 | CC1(C)OC(N[C@@H](CCO)c2ccccc2F)=NS(=O)(=O)[C@H]1Cc1ccc(C2CCNCC2)cc1 [Example 35, (S)-3-[(S)-6,6-Dimethyl-4,4-dioxo-5-(4-piperidin-4-yl-benzyl)-5,6-dihydro-4H-4lambda6-[1,4,3]oxathiazin-2-ylamino]-3-(2-fluorophenyl)-propan-1-ol] | 11
7 | CN(CCO)CCCc1ccc(CC2C(C)(C)OC(N[C@@H](CCO)c3ccccc3F)=NS2(=O)=O)cc1 (stereo partly shown) [Example 36] | 38
8 | C[C@H](NC1=NS(=O)(=O)C(Cc2ccc(C3CCN(CCO)CC3)cc2)C(C)(C)O1)c1ccccc1F (stereo partly drawn) [Example 37, 2-[4-(4-{2-[(S)-1-(2-fluorophenyl)-ethylamino]-6,6-dimethyl-4,4-dioxo-5,6-dihydro-4H-4lambda6-[1,4,3]oxathiazin-5-ylmethyl}-phenyl)-piperidin-1-yl]-ethanol] | 37
9 | C[C@H](NC1=NS(=O)(=O)C(Cc2ccc(C3CCNCC3)cc2)C(C)(C)O1)c1ccccc1F (stereo partly drawn) [Example 38, [6,6-Dimethyl-4,4-dioxo-5-(4-piperidin-4-yl-benzyl)-5,6-dihydro-4H-4lambda6-[1,4,3]oxathiazin-2-yl]-[(S)-1-(2-fluorophenyl)-ethyl]-amine] | 7
10 | C[C@H](NC1=NS(=O)(=O)C(Cc2ccc(N3CCN(C(C)(C)C)CC3)cc2)C(C)(C)O1)c1ccccc1F (stereo partly drawn) [Example 39, {5-[4-(4-tert-Butyl-piperazin-1-yl)-benzyl]-6,6-dimethyl-4,4-dioxo-5,6-dihydro-4H-4lambda6-[1,4,3]oxathiazin-2-yl}-[(S)-1-(2-fluorophenyl)-ethyl]-amine] | 17
11 | COCCN1CCC(c2ccc(CC3C(C)(C)OC(N[C@@H](C)c4ccccc4F)=NS3(=O)=O)cc2)CC1 (stereo partly drawn) [Example 40, [(S)-1-(2-fluorophenyl)-ethyl]-(5-{4-[1-(2-methoxy-ethyl)-piperidin-4-yl]-benzyl}-6,6-dimethyl-4,4-dioxo-5,6-dihydro-4H-4lambda6-[1,4,3]oxathiazin-2-yl)-amine] | 25
12 | CC1(C)OC(N[C@@H](CCO)c2ccccc2F)=NS(=O)(=O)[C@@H]1Cc1ccc(C2CCN(C3CC3)CC2)cc1 [Example 41, (S)-3-{(R)-5-[4-(1-Cyclopropyl-piperidin-4-yl)-benzyl]-6,6-dimethyl-4,4-dioxo-5,6-dihydro-4H-4lambda6-[1,4,3]oxathiazin-2-ylamino}-3-(2-fluoro-phenyl)-propan-1-ol] | 32
13 | CC1(C)OC(N[C@@H](CCO)c2ccccc2F)=NS(=O)(=O)[C@H]1Cc1ccc(C2CCN(C3CC3)CC2)cc1 [Example 42, (S)-3-{(S)-5-[4-(1-Cyclopropyl-piperidin-4-yl)-benzyl]-6,6-dimethyl-4,4-dioxo-5,6-dihydro-4H-4lambda6-[1,4,3]oxathiazin-2-ylamino}-3-(2-fluoro-phenyl)-propan-1-ol] | 5
14 | C[C@H](NC1=NS(=O)(=O)C(Cc2ccc(C3CCN(C4CC4)CC3)cc2)C(C)(C)O1)c1ccccc1F (stereo partly drawn) [Example 43, {5-[4-(1-Cyclopropyl-piperidin-4-yl)-benzyl]-6,6-dimethyl-4,4-dioxo-5,6-dihydro-4H-4lambda6-[1,4,3]oxathiazin-2-yl}-[(S)-1-(2-fluorophenyl)-ethyl]-amine] | 11
15 | COC(=O)N1CCC(c2ccc(CC3C(C)(C)OC(N[C@@H](C)c4ccccc4F)=NS3(=O)=O)cn2)CC1 (stereo partly drawn) [Example 44, 5-{2-[(S)-1-(2-fluorophenyl)-ethylamino]-6,6-dimethyl-4,4-dioxo-5,6-dihydro-4H-4lambda6-[1,4,3]oxathiazin-5-ylmethyl}-3′,4′,5′,6′-tetrahydro-2′H-[2,4′]bipyridinyl-1′-carboxylic acid methyl ester] | 5
16 | C[C@H](NC1=NS(=O)(=O)[C@H](Cc2ccc(N3CCNCC3)cc2)C(C)(C)O1)c1ccccc1F [Example 45, [(R)-6,6-Dimethyl-4,4-dioxo-5-(4-piperazin-1-yl-benzyl)-5,6-dihydro-4H-4lambda6-[1,4,3]oxathiazin-2-yl]-[(S)-1-(2-fluorophenyl)-ethyl]-amine] | 44
17 | C[C@H](NC1=NS(=O)(=O)[C@H](Cc2ccc(C3CCN(C)CC3)cc2)C(C)(C)O1)c1ccccc1F [Example 50] | 52
18 | C[C@H](NC1=NS(=O)(=O)[C@@H](Cc2ccc(C3CCN(C)CC3)cc2)C(C)(C)O1)c1ccccc1F [Example 51] | 6
19 | C[C@H](NC1=NS(=O)(=O)[C@H](Cc2ccc(NCCN(C)C)cc2)C(C)(C)O1)c1ccccc1F [Example 52, N-(4-{(R)-2-[(S)-1-(2-fluorophenyl)-ethylamino]-dimethyl-4,4-dioxo-5,6-dihydro-4H-4lambda6-[1,4,3]oxathiazin-5-ylmethyl}-phenyl)-N′,N′,- dimethyl-ethane-1,2-diamine] | 62
20 | C[C@H](NC1=NS(=O)(=O)[C@@H](Cc2ccc(C3CCN(C4COC4)CC3)cc2)C(C)(C)O1)c1ccccc1F [Example 53, {(S)-6,6-Dimethyl-5-[4-(1-oxetan-3-yl-piperidin-4-yl)-benzyl]-4,4-dioxo-5,6-dihydro-4H-4lambda6-[1,4,3]oxathiazin-2-yl}-[(S)-1-(2-fluorophenyl)-ethyl]-amine] | 9
21 | C[C@H](NC1=NS(=O)(=O)[C@@H](Cc2ccc(OCC(C)(C)N)cc2)C(C)(C)O1)c1ccccc1F [Example 55, {(S)-5-[4-(2-Amino-2-methyl-propoxy)-benzyl]-6,6-dimethyl-4,4-dioxo-5,6-dihydro-4H-4lambda6-[1,4,3]oxathiazin-2-yl}-[(S)-1-(2-fluorophenyl)-ethyl]-amine] | 8
22 | C[C@H](NC1=NS(=O)(=O)C(Cc2ccc(C3CCN(C4COC4)CC3)nc2)C(C)(C)O1)c1ccccc1F (stereo partly drawn) [Example 56, [6,6-Dimethyl-5-(1′-oxetan-3-yl-1′,2′,3′,4′,5′,6′-hexahydro-[2,4′]bipyridinyl-5-ylmethyl)-4,4-dioxo-5,6-dihydro-4H-4lambda6-[1,4,3]oxathiazin-2-yl]-[(S)-1-(2-fluorophenyl)-ethyl]-amine] | 24
